Measurements published in publication PMC6480460, “Derivatives of the β-Crinane Amaryllidaceae Alkaloid Haemanthamine as Multi-Target Directed Ligands for Alzheimer’s Disease” (Molecules, 2019).

Experiments:
in vitro = conditions: for PAMPA-BBB prediction of penetration in the CNS: class from Pe
Protocol: The PAMPA assay was performed as previously described.

[1] = tested on: MCF-7 (breast adenocarcinoma); assay: WST-1 cytotoxicity assay, MCF-7; format: cell-based; conditions: Homo sapiens, MCF7; c = 10 μM, 48 h, percent of proliferation of untreated control cells; read-out: Cell proliferation, MCF-7
From the text: (§1) Selected human tumor and non-tumor cell lines {Jurkat (acute T cell leukemia), MOLT-4 (acute lymphoblastic leukemia), A549 (lung carcinoma), HT-29 (colorectal adenocarcinoma), PANC-1 (pancreas epithelioid carcinoma), A2780 (ovarian carcinoma), HeLa (cervix adenocarcinoma), MCF-7 (breast adenocarcinoma), SAOS-2 (osteosarcoma) and MRC-5 (normal lung fibroblasts)} were purchased from either ATCC (Manassas, VA, USA) or Sigma-Aldrich (St. Louis, MO, USA) and cultured according to the provider’s culture method guidelines. […] Cells in the maximum range of either 10 passages for primary cell line (MRC-5), or in the maximum range of 20 passages for cancer cell lines (Jurkat, MOLT-4, A549, HT-29, PANC-1, A2780, HeLa, MCF-7 and SAOS-2) and in an exponential growth phase were used for this study.
(§2) The WST-1 (Roche, Mannheim, Germany) reagent was used to determine the cytostatic effect of the test compounds. WST-1 is designed for the spectrophotometric quantification of cell proliferation, growth, viability and chemosensitivity in cell populations using a 96-well-plate format (Sigma, St. Louis, MO, USA). The principle of WST-1 is based on photometric detection of the reduction of tetrazolium salt to a colored formazan product. The cells were seeded at a previously established optimal density (30,000 Jurkat, 25,000 MOLT-4, 500 A549, 1500 HT-29, 2000 PANC-1, 5000 A2780, 500 HeLa, 1500 MCF-7, 2000 SAOS-2 and 2000 MRC-5 cells/well) in 100 µL of culture medium, and adherent cells were allowed to reattach overnight. Thereafter, the cells were treated with 100 µL of either corresponding alkaloids or doxorubicin stock solutions to obtain the desired concentrations and incubated in 5% CO2 at 37 °C. WST-1 reagent diluted 4-fold with PBS (50 µL) was added 48 h after treatment. Absorbance was measured after 3 h incubation with WST-1 at 440 nm. The measurements were performed in a Tecan Infinite M200 spectrometer (Tecan Group, Männedorf, Switzerland). All experiments were performed at least three times with triplicate measurements at each drug concentration per experiment. The viability was quantified as described previously according to the following formula: (%) viability = (Asample − Ablank)/(Acontrol − Ablank) × 100, where A is the absorbance of the employed WST-1 formazan measured at 440 nm. The viability of the treated cells was normalized to the viability of cells treated with 0.1% DMSO (Sigma-Aldrich) as a vehicle control.

[2] = tested on: PANC-1 (pancreas epithelioid carcinoma); assay: WST-1 cytotoxicity assay, PANC-1; format: cell-based; conditions: Homo sapiens, c = 10 μM, 48 h, percent of proliferation of untreated control cells, read-out: Cell proliferation, PANC-1
From the text: as §1, §2

[3] = tested on: HeLa (cervix adenocarcinoma); assay: WST-1 cytotoxicity assay, HeLa; format: cell-based; conditions: Homo sapiens, c = 10 μM, 48 h, percent of proliferation of untreated control cells, read-out: Cell proliferation, HeLa
From the text: as §1, §2

[4] = tested on: Jurkat (acute T cell leukemia); assay: WST-1 cytotoxicity assay, Jurkat; format: cell-based; conditions: Homo sapiens, c = 10 μM, 48 h, percent of proliferation of untreated control cells
From the text: as §1, §2

[5] = tested on: A2780 (ovarian carcinoma); assay: WST-1 cytotoxicity assay, A2780; format: cell-based; conditions: Homo sapiens, c = 10 μM, 48 h, percent of proliferation of untreated control cells, read-out: Cell proliferation, A2780
From the text: as §1, §2

[6] = tested on: MOLT-4 (acute lymphoblastic leukemia); assay: WST-1 cytotoxicity assay, MOLT-4; format: cell-based; conditions: Homo sapiens, c = 10 μM, 48 h, percent of proliferation of untreated control cells, read-out: Cell proliferation, MOLT-4
From the text: as §1, §2

hBuChE = hBuChE (Homo sapiens, UniProt P06276); assay: biochemical; format: biochemical; conditions: mean ± SEM of three independent measurements, each in triplicate; read-out: hBuChE IC50
Sequence of hBuChE (P06276 29-602): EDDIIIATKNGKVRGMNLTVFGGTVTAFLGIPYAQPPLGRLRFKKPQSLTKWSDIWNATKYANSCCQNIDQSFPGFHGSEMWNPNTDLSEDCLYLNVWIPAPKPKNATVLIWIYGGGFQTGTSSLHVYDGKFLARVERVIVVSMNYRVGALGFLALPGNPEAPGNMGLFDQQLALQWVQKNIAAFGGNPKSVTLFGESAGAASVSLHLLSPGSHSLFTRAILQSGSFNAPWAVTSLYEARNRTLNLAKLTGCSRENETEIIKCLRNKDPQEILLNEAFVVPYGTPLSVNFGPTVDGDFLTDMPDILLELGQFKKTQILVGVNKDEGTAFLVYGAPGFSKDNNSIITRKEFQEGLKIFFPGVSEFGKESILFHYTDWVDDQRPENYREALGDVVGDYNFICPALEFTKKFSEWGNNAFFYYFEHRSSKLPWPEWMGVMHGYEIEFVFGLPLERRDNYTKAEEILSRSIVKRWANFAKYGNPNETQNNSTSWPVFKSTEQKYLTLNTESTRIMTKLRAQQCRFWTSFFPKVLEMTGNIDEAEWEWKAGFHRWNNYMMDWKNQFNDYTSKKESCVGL
Protocol: (§3) The hAChE and hBuChE activities were determined using a modified method of Ellman with acetylthiocholine iodide (ATChI) and butyrylthiocholine iodide (BuTChI) as substrates, respectively.

hAChE = hAChE (Homo sapiens, UniProt P22303); assay: biochemical; format: biochemical; conditions: for IC50: mean ± SEM of three independent measurements, each in triplicate; for SI for hAChE: selectivity index, ratio hBuChE IC50/hAChE IC50
Sequence of hAChE (P22303 32-614): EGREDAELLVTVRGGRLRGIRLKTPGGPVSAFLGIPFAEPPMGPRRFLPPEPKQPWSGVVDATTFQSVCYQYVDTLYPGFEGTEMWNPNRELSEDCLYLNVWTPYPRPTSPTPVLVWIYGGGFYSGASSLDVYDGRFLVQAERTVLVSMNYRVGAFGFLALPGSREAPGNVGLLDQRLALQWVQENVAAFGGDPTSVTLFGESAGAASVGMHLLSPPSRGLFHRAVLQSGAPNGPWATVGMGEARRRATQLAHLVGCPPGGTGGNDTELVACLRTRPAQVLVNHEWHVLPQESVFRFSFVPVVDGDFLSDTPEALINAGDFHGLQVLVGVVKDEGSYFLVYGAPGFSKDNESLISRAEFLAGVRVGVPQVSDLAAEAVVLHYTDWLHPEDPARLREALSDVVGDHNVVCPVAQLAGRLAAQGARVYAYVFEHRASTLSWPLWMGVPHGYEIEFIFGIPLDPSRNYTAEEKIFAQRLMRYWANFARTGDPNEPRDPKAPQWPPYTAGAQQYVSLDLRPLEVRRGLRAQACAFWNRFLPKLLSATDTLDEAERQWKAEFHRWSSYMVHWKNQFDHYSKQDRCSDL
Protocol: as §3

[7] = tested on: HT-29 (colorectal adenocarcinoma); assay: WST-1 cytotoxicity assay, HT-29; format: cell-based; conditions: Homo sapiens, c = 10 μM, 48 h, percent of proliferation of untreated control cells, read-out: Cell proliferation, HT-29
From the text: as §1, §2

A549 (lung carcinoma) = assay: WST-1 cytotoxicity assay, A549; format: cell-based; conditions: Homo sapiens, c = 10 μM, 48 h, percent of proliferation of untreated control cells, read-out: Cell proliferation, A549
From the text: as §1, §2

[8] = tested on: MRC-5 (normal lung fibroblasts); assay: WST-1 cytotoxicity assay, MRC-5; format: cell-based; conditions: Homo sapiens, MRC5; c = 10 μM, 48 h, percent of proliferation of untreated control cells; read-out: Cell proliferation, MRC-5
From the text: as §1, §2

SAOS-2 (osteosarcoma) = assay: WST-1 cytotoxicity assay, SAOS-2; format: cell-based; conditions: Homo sapiens, c = 10 μM, 48 h, percent of proliferation of untreated control cells, read-out: Cell proliferation, SAOS-2
From the text: as §1, §2

GSK-3β = GSK-3β (Homo sapiens, UniProt P49841); assay: GSK-3β assay (Kinase-Glo Kit); format: biochemical; conditions: tested at 10 µM compound concentration; read-out: GSK-3β (% inhib.)
Sequence of GSK-3β (P49841 whole entry): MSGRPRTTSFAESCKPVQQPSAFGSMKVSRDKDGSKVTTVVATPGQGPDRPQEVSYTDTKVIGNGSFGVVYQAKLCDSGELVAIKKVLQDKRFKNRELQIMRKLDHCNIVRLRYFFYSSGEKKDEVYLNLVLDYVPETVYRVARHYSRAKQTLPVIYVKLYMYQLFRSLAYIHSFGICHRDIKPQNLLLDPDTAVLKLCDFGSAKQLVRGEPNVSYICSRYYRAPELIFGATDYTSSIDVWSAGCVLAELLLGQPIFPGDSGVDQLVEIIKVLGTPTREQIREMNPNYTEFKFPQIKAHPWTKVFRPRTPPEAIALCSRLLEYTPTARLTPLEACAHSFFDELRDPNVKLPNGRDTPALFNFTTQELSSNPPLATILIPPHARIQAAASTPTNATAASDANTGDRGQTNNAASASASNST
Protocol: The GSK-3β assay was performed by using Kinase-Glo Kit obtained from Promega (Promega Biotech Iberica, SL, Madrid, Spain) as described previously.

SMILES	Papp (in vitro; pig, PAMPA, PAMPA-BBB Permeability (Pe))	activity at 10 µM [1]	activity at 10 µM [2]	activity at 10 µM [3]	activity at 10 µM [4]	activity at 10 µM [5]	viability at 10 µM [6]	IC50 (hBuChE)	IC50 (hAChE)	SI for hAChE (hAChE)	activity at 10 µM [7]	activity at 10 µM (A549 (lung carcinoma))	activity at 10 µM [8]	activity at 10 µM (SAOS-2 (osteosarcoma))	PAMPA-BBB prediction of penetration in the CNS (in vitro)	PAMPA-BBB prediction of penetration in the CNS (in vitro; listed as 18g)	inhibition at 10 µM (GSK-3β)
CN(C)CCCN1c2ccccc2Sc2ccccc21 [Promazine, reference compound]	8.6 ×10⁻⁶ cm/s	–	–	–	–	–	–	–	–	–	–	–	–	–	–	–	–
COC1C=CC23c4cc5c(cc4CN(CC2OC(=O)c2cccc(Br)c2)C3C1)OCO5 (stereo not drawn) [Compound 1i, 11-O-(3-Bromobenzoyl)haemanthamine]	–	105 ± 4%	108 ± 2%	93 ± 5%	133 ± 10%	162 ± 9%	115 ± 15%	129 ± 25 µM	112 ± 21 µM	1.1	120 ± 4%	122 ± 5%	105 ± 3%	97 ± 10%	–	–	–
COc1cccc2c1C(=O)c1c(O)c3c(c(O)c1C2=O)C[C@@](O)(C(=O)CO)C[C@@H]3O[C@H]1C[C@H](N)[C@H](O)[C@H](C)O1 [DOX, Doxorubicin, reference compound]	–	41 ± 7%	59 ± 9%	7 ± 10%	0%	5 ± 1%	0%	–	–	–	77 ± 12%	66 ± 16%	40 ± 4%	73 ± 8%	–	–	–
COC1C=CC23c4cc5c(cc4CN(CC2OC(=O)c2ccccc2)C3C1)OCO5 (stereo not drawn) [Compound 1g, 11-O-Benzoylhaemanthamine]	–	108 ± 10%	100 ± 10%	98 ± 2%	83 ± 11%	120 ± 10%	110 ± 19%	5.8 ± 0.3 µM	294 ± 25 µM	0.02	110 ± 17%	98 ± 2%	101 ± 5%	104 ± 9%	CNS+ (CNS(+): high BBB permeation predicted with Pe (10^−6 cm.s^−1) > 4.0)	CNS +	11 ± 2%
CCCC(=O)OC1CN2Cc3cc4c(cc3C13C=CC(OC)CC23)OCO4 (stereo not drawn) [Compound 1f, 11-O-Butanoylhaemanthamine]	–	96 ± 13%	99 ± 6%	88 ± 3%	90 ± 12%	104 ± 8%	101 ± 18%	140 ± 21 µM	> 500 µM	< 0.3	101 ± 3%	106 ± 12%	87 ± 14%	104 ± 7%	–	–	–
CCCCC(=O)OC1CN2Cc3cc4c(cc3C13C=CC(OC)CC23)OCO4 (stereo not drawn) [Compound 1d, 11-O-Pentanoylhaemanthamine]	–	93 ± 5%	88 ± 3%	93 ± 6%	92 ± 1%	99 ± 2%	96 ± 1%	> 500 µM	> 500 µM	–	94 ± 4%	99 ± 7%	89 ± 3%	88 ± 6%	–	–	–
COC1C=CC23c4cc5c(cc4CN(CC2OC(=O)C(C)C)C3C1)OCO5 (stereo not drawn) [Compound 1c, 11-O-Isobutanoylhaemanthamine]	–	103 ± 7%	85 ± 13%	74 ± 8%	110 ± 3%	123 ± 9%	99 ± 8%	203 ± 8 µM	> 500 µM	< 0.4	82 ± 17%	84 ± 3%	95 ± 7%	85 ± 15%	–	–	–
COC1C=CC23c4cc5c(cc4CN(CC2OC(=O)c2cccc(Cl)c2)C3C1)OCO5 (stereo not drawn) [Compound 1h, 11-O-(3-Chlorobenzoyl)haemanthamine]	–	–	–	–	–	–	–	80.2 ± 10.2 µM	85.1 ± 6.4 µM	0.9	–	–	–	–	–	–	–
COc1cccc(C(=O)OC2CN3Cc4cc5c(cc4C24C=CC(OC)CC34)OCO5)c1 (stereo not drawn) [Compound 1k, 11-O-(3-Methoxybenzoyl)haemanthamine]	–	100 ± 2%	88 ± 5%	84 ± 12%	83 ± 1%	108 ± 7%	94 ± 18%	75.5 ± 12.5 µM	180 ± 17 µM	0.4	93 ± 3%	102 ± 5%	92 ± 1%	89 ± 15%	–	–	–
CCC(=O)OC1CN2Cc3cc4c(cc3C13C=CC(OC)CC23)OCO4 (stereo not drawn) [Compound 1b, 11-O-Propionylhaemanthamine]	–	85 ± 7%	70 ± 13%	69 ± 11%	104 ± 3%	104 ± 3%	97 ± 8%	437 ± 38 µM	> 500 µM	< 0.9	79 ± 15%	84 ± 3%	102 ± 13%	96 ± 16%	–	–	–
COC1C=CC23c4cc5c(cc4CN(CC2OC(C)=O)C3C1)OCO5 (stereo not drawn) [Compound 1a, 11-O-Acetylhaemanthamine]	–	97 ± 19%	114 ± 4%	83 ± 6%	100 ± 13%	107 ± 17%	106 ± 9%	> 500 µM	> 500 µM	–	97 ± 10%	95 ± 9%	113 ± 12%	88 ± 6%	–	–	–
CCCCCC(=O)OC1CN2Cc3cc4c(cc3C13C=CC(OC)CC23)OCO4 (stereo not drawn) [Compound 1e, 11-O-Hexanoylhaemanthamine]	–	95 ± 4%	96 ± 4%	98 ± 3%	100 ± 7%	106 ± 5%	97 ± 3%	273 ± 18 µM	> 500 µM	< 0.5	100 ± 3%	105 ± 9%	96 ± 4%	96 ± 8%	–	–	–
